Columns and labels:
[1] = log P by HPLC on reversed-phase column (EEC Directive 79/831 Annex V.A8); format: physicochemical; details: 0.1% aqueous formic acid and acetonitrile, linear gradient 10% to 90% acetonitrile
Procedure, shortened: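 Gradient elution (10% to 90% acetonitrile, 0.1% aqueous formic acid) at 40° C; log P interpolated linearly between flanking alkan-2-one standards (3 to 16 carbons).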

Pyrenophora teres = assay: In vivo preventive test on Pyrenophora teres (barley); details: preventive spray, 500 ppm of active ingredient, evaluated 7-9 days after inoculation
Procedure, shortened: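 Young barley plants were sprayed with compound formulated in N,N-dimethylacetamide/emulsifier and diluted with water, then inoculated with P. teres spores one day later. After 48 h at 22° C., 100% humidity, plants stood in a greenhouse (~20° C., ~80% humidity); efficacy versus untreated control was scored 7-9 days post-inoculation.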

Leptosphaeria nodorum = assay: In vivo preventive test on Leptosphaeria nodorum (wheat); details: preventive spray, 500 ppm of active ingredient, evaluated 7-9 days after inoculation
Description: In Vivo Preventive Test on Leptosphaeria nodorum (Wheat)
(§1) Solvent: 49 parts by weight of N,N-dimethylacetamide
(§2) Emulsifier: 1 part by weight of alkylaryl polyglycol ether
(§3) To produce a suitable preparation of active compound, 1 part by weight of active compound is mixed with the stated amounts of solvent and emulsifier, and the concentrate is diluted with water to the desired concentration.
To test for preventive activity, young plants are sprayed with a preparation of active compound at the stated rate of application. One day after this treatment, the plants are inoculated with an aqueous spore suspension of Leptosphaeria nodorum. The plants remain for 48 hours in an incubation cabinet at 22° C. and a relative atmospheric humidity of 100%. Then the plants are placed in a greenhouse at a temperature of approximately 22° C. and a relative atmospheric humidity of approximately 90%.
The test is evaluated 7-9 days after the inoculation. 0% means an efficacy which corresponds to that of the untreated control, while an efficacy of 100% means that no disease is observed.
Under these conditions, good (at least 70%) to excellent protection (at least 95%) is observed at a dose of 500 ppm of active ingredient with the following compounds from table D: […]

Alternaria solani = assay: In vivo preventive test on Alternaria solani (tomato); details: preventive spray, 500 ppm of active ingredient, evaluated 7 days after inoculation
Description: In Vivo Preventive Test on Alternaria Solani (Tomato)
(§4) Solvent: 49 parts by weight of N,N-dimethylformamide
(§5) Emulsifier: 1 part by weight of alkylarylpolyglycolether
as §3
To test for preventive activity, young plants are sprayed with the preparation of active compound at the stated rate of application. One day after this treatment, the plants are inoculated with an aqueous spore suspension of Alternaria solani. The plants remain for one day in an incubation cabinet at approximately 22° C. and a relative atmospheric humidity of 100%. Then the plants are placed in an incubation cabinet at approximately 20° C. and a relative atmospheric humidity of 96%.
The test is evaluated 7 days after the inoculation. 0% means an efficacy which corresponds to that of the untreated control while an efficacy of 100% means that no disease is observed.

Sphaerotheca fuliginea = assay: In vivo preventive test on Sphaerotheca fuliginea (cucumber); details: preventive spray, 500 ppm of active ingredient, evaluated 7 days after inoculation
Description: In Vivo Preventive Test on Sphaerotheca fuliginea (Cucumber)
as §4, §5, §3
To test for preventive activity, young plants are sprayed with the preparation of active compound at the stated rate of application. After the spray coating has dried on, the plants are inoculated with an aqueous spore suspension of Sphaerotheca fuliginea. The plants are then placed in a greenhouse at approximately 23° C. and a relative atmospheric humidity of approximately 70%.
(§6) The test is evaluated 7 days after the inoculation. 0% means an efficacy which corresponds to that of the untreated control, while an efficacy of 100% means that no disease is observed.

Puccinia triticina = assay: In vivo preventive test on Puccinia triticina (wheat); details: preventive spray, 500 ppm of active ingredient, evaluated 8 days after inoculation
Description: In Vivo Preventive Test on Puccinia triticina (Wheat)
as §1, §2
(§7) To produce a suitable preparation of active compound, 1 part by weight of active compound or active compound combination is mixed with the stated amounts of solvent and emulsifier, and the concentrate is diluted with water to the desired concentration.
(§8) To test for preventive activity, young plants are sprayed with the preparation of active compound or active compound combination at the stated rate of application.
After the spray coating has been dried, the plants are sprayed with a spore suspension of Puccinia triticina. The plants remain for 48 hours in an incubation cabinet at approximately 20° C. and a relative atmospheric humidity of approximately 100%.
The plants are placed in the greenhouse at a temperature of approximately 20° C. and a relative atmospheric humidity of approximately 80%.
The test is evaluated 8 days after the inoculation. 0% means an efficacy which corresponds to that of the untreated control, while an efficacy of 100% means that no disease is observed.

Septoria tritici = assay: In vivo preventive test on Septoria tritici (wheat); details: preventive spray, 500 ppm of active ingredient, evaluated 21 days after inoculation
Description: In Vivo Preventive Test on Septoria tritici (Wheat)
as §1, §2, §7, §8
After the spray coating has been dried, the plants are sprayed with a spore suspension of Septoria tritici. The plants remain for 48 hours in an incubation cabinet at approximately 20° C. and a relative atmospheric humidity of approximately 100% and afterwards for 60 hours at approximately 15° C. in a translucent incubation cabinet at a relative atmospheric humidity of approximately 100%.
The plants are placed in the greenhouse at a temperature of approximately 15° C. and a relative atmospheric humidity of approximately 80%.
The test is evaluated 21 days after the inoculation. 0% means an efficacy which corresponds to that of the untreated control, while an efficacy of 100% means that no disease is observed.

[2] = tested on: Blumeria graminis f.sp. hordei; assay: In vivo preventive test on Blumeria graminis (barley); details: preventive spray, 500 ppm of active ingredient, evaluated 7 days after inoculation
Description: In Vivo Preventive Test on Blumeria graminis (Barley)
as §1, §2, §7, §8
After the spray coating has been dried, the plants are dusted with spores of Blumeria graminis f.sp. hordei.
The plants are placed in the greenhouse at a temperature of approximately 18° C. and a relative atmospheric humidity of approximately 80% to promote the development of mildew pustules.
as §6

[3] = HPLC, reversed-phase C 18, 40° C.
[4] = HPLC on reversed-phase column (C 18), 40° C.

Structure (SMILES)	logP [1, 3]	Efficacy (Pyrenophora teres) [%]	Efficacy (Leptosphaeria nodorum) [%]	Efficacy (Alternaria solani) [%]	Efficacy (Sphaerotheca fuliginea) [%]	logP [1, 4]	Efficacy (Puccinia triticina) [%]	Efficacy (Septoria tritici) [%]	Efficacy [2] [%]
CC(C)c1ccccc1CNC(=O)c1c(C(F)F)nn(C)c1Cl [Example 79]	3.19	95	94	–	–	–	–	–	–
Cn1nc(C(F)F)c(C(=O)NC(C)(C)c2ccc(Cl)cc2Cl)c1F [Example 39]	4.39	95	90	70	95	–	–	–	–
CC(NC(=S)c1c(C(F)F)nn(C)c1Cl)c1ccc(Cl)cc1Cl (centres unmarked) [Example 44]	3.99	100	89	100	–	–	–	–	–
CN(Cc1ncc(Cl)cc1Cl)C(=O)c1c(C(F)F)nn(C)c1F [Example 179]	–	100	70	90	–	2.53	–	–	–
CON(Cc1ccccc1C(C)C)C(=O)c1c(C(F)F)nn(C)c1F [Example 76]	3.37	–	89	94	93	–	–	–	–
Cn1nc(C(F)F)c(C(=O)N(Cc2ccccc2[Si](C)(C)C)C2CCC2)c1F [Example 98]	4.61	–	–	70	96	–	95	–	–
CC(c1ccc(Oc2ccccc2)cc1)N(C)C(=O)c1c(C(F)F)nn(C)c1F (racemic) [Example 154]	–	100	70	95	–	3.59	–	–	–
CCN(Cc1ccccc1[Si](C)(C)C)C(=O)c1c(C(F)F)nn(C)c1F [Example 99]	4.09	95	–	95	95	–	100	–	–
CC(NC(=O)c1c(C(F)F)nn(C)c1F)c1cccc(Cl)c1Cl (racemic) [Example 29]	3.13	100	–	94	–	–	–	88	–
Cn1nc(C(F)F)c(C(=O)N(Cc2ccc(Cl)cc2Cl)C2CCC2)c1F [Example 31]	4.19	100	80	–	–	–	–	–	–
CC(c1ccccc1Cl)N(C)C(=S)c1c(C(F)F)nn(C)c1F (racemic) [Example 18]	3.44	100	95	95	90	–	–	–	–
C=CCN(Cc1ccccc1[Si](C)(C)C)C(=O)c1c(C(F)F)nn(C)c1F [Example 100]	4.27	–	–	80	–	–	80	–	–
CC(c1ncc(Cl)cc1Cl)N(C(=O)c1c(C(F)F)nn(C)c1F)C1CCCC1 (centres unmarked) [Example 187]	–	90	80	–	–	4.44	–	–	–
Cn1nc(C(F)F)c(C(=O)NCc2ccccc2SC(F)(F)F)c1Cl [Example 106]	–	90	–	–	–	3.29	80	–	–
CN(Cc1ncc(Cl)cc1Cl)C(=O)c1c(C(F)F)nn(C)c1Cl [Example 180]	–	100	–	80	–	2.73	80	–	–
CC(C)c1ccccc1CNC(=O)c1c(C(F)F)nn(C)c1F [Example 74]	3.02	100	80	95	95	–	–	–	–
CC(c1cc(Cl)cc(Cl)c1)N(C)C(=O)c1c(C(F)F)nn(C)c1F (centres unmarked) [Example 117]	–	100	70	100	95	3.46	70	–	–
CC(c1cc(Cl)ccc1Cl)N(C)C(=O)c1c(C(F)F)nn(C)c1F (centres unmarked) [Example 56]	3.15	100	70	100	95	–	–	–	–
CC(C)c1ccccc1CN(C)C(=O)c1c(C(F)F)nn(C)c1F [Example 72]	3.11	100	78	95	98	–	–	90	100
Cn1nc(C(F)F)c(C(=O)NCc2ccc(C(C)(C)C)cc2)c1Cl [Example 136]	–	–	70	–	–	3.58	–	–	–
Cn1nc(C(F)F)c(C(=O)N(Cc2c(Cl)cccc2C(F)(F)F)C2CCC2)c1F [Example 90]	3.81	100	–	95	100	–	95	100	100
CON(C(=O)c1c(C(F)F)nn(C)c1F)C(C)c1ccc(Cl)cc1Cl (centres unmarked) [Example 45]	3.65	100	95	–	100	–	–	–	–
Cn1nc(C(F)F)c(C(=O)NCc2ccc(C(C)(C)C)cc2)c1F [Example 135]	–	–	75	–	–	3.42	–	–	–
CON(Cc1ncc(Cl)cc1Cl)C(=O)c1c(C(F)F)nn(C)c1F [Example 181]	–	100	70	80	–	2.73	70	–	–
C#CCN(Cc1ccccc1[Si](C)(C)C)C(=O)c1c(C(F)F)nn(C)c1F [Example 101]	3.93	80	–	70	–	–	90	–	–
CC(c1cc(Cl)cc(Cl)c1)N(C)C(=S)c1c(C(F)F)nn(C)c1F (centres unmarked) [Example 118]	–	100	70	100	95	4.24	–	–	–
CCN(Cc1ccccc1C(C)C)C(=O)c1c(C(F)F)nn(C)c1F [Example 68]	3.42	100	–	80	100	–	70	100	100
Cn1nc(C(F)F)c(C(=O)N(Cc2ccc(Cl)cc2Cl)C2CCC2)c1Cl [Example 30]	4.39	100	90	–	–	–	–	–	–
Cn1nc(C(F)F)c(C(=O)NC2(c3ccc(Cl)c(C(F)(F)F)c3)CC2)c1Cl [Example 126]	–	95	–	–	–	3.41	78	–	–
Cn1nc(C(F)F)c(C(=O)N(Cc2ncc(Cl)cc2Cl)C2CCCC2)c1Cl [Example 184]	–	–	–	–	–	4.11	70	–	–

From patent publication US9084424B2, “N-benzyl heterocyclic carboxamides” (BAYER INTELLECTUAL PROPERTY GMBH, priority 2010, dated 2015)
